Some test systems named below: RXF 631; SNB-78; M19-MEL; HOP-18; XF498; DLD-1; DMS-114; KM-20L2; DMS-273.
Holding throughout (assay): NCI anticancer screen, dose series, 48 h

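1) Cells in 96-well plates. 2) Compound, 48 h, 5 concentrations. 3) Linear interpolation between surrounding doses. 4) Unreached endpoint = highest concentration. Here, GI50 denotes the concentration required for 50% inhibition of growth.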 Activity calls are given as the source filed them. Cut-off read from the data, not from the text of the source: active = GI50 up to about 1.1 µM and inactive = higher. Where only a bound is given, the exact number is not on record here.

The source of these data is ChEMBL document CHEMBL1201862, “PubChem BioAssay data set” (2004).

With `COc1cc(/C=C2\Cc3ccccc3C2=O)cc(OC)c1OC`, the GI50 with RXF 631, with SNB-78, in the test with M19-MEL, in the test on HOP-18, with XF498 and in the test on DLD-1 was > 100 µM (inactive) each time. For the same compound, the GI50 in the test on DMS-114, in the test on KM-20L2 and with DMS-273 was > 100 µM (inactive) in each case.
With `COC(=O)CCC(NC(=S)N/N=C/c1cccs1)C(=O)OC` (configuration not stated), the GI50 in the test with RXF 631, in the test with SNB-78, in the test on M19-MEL, in the test on HOP-18, with XF498 and in the test with DLD-1 was > 100 µM (inactive) each time. Besides, the GI50 in the test with DMS-114, in the test with KM-20L2 and in the test with DMS-273 was > 100 µM (inactive) each time.
For `O=C1/C(=C/c2ccccc2)CNC/C1=C\c1ccccc1`, the GI50 in the test on RXF 631 was 2.91 µM (inactive); in the test with SNB-78 it was 10.4 µM (inactive); in the test on M19-MEL it was 1.02 µM (active); with HOP-18 it was 11 µM (inactive); in the test with XF498, 2.32 µM (inactive); in the test on DLD-1, 0.329 µM (active). In addition, the GI50 was 2.11 µM (inactive) with DMS-114, 1.39 µM (inactive) with KM-20L2 and 0.721 µM (active) in the test with DMS-273.
